What was measured:
[1] = system: Orx rat; test: Prostate weight in the Orx rat (Example 4); assay type: in vivo; settings: Orx rat (Orx decreased prostate weight by 77%); FIG. 3
From the text: (§1) Eight month-old male Sprague Dawley rats were either sham-operated (SHAM) or orchidectomized (ORX). Treatment began immediately following surgery. The treatment groups were as described in Table 5.

[2] = system: orchidectomized (Orx/Cx) male Sprague-Dawley rats; test: Distal right femur cancellous pQCT (Example 3); assay type: in vivo, rat; settings: Toremifene 5 mg/kg/day; for cancellous bone mineral content and density (Orx-induced decrease of 34%): Orx rats, 17-β-Estradiol 0.5 mg/kg/day s.c.; for Total Bone Area / Total Bone Content / Total Bone Density / Trabecular Area / Trabecular Content / Trabecular Density: castrated (Cx) rats, distal right femur pQCT, mean, n=5, 17-β-estradiol 0.5 mg/kg/day s.c.
Experimental: Male Sprague-Dawley rats (Harlan Sprague Dawley) were placed on study at 14-weeks of age. They were randomized and divided into five treatment groups: vehicle only (placebo, or P) after sham operation, vehicle only after orchidectomy (Orx), Toremifene (5 mg/kg/day) after sham-operation, and Toremifene after orchidectomy, and 17-β-estradiol (0.5 mg/kg/day) after orchidectomy. Test articles were delivered subcutaneously by Alzet pumps. Pumps were re-implanted every 30 days until the end of the study. Five to six animals from each group were sacrificed after 60 and 120 days of treatment, and femurs were harvested, stripped of soft tissue and muscle, and stored individually in polypropylene vials at −80° C. until analysis of bone density and mechanical strength testing. Additionally, serum was collected on days 15, 30, 60, 90 and 120, to measure markers of bone metabolism and to perform serum chemistry.
Peripheral Quantitative Computed Tomography (pQCT)
Right femurs were subjected to pQCT analysis using a Stratec XCT-RM with associated software (Stratec Medizintechnik GmbH, Pforzheim, Germany. Software version 5.40 C). Femurs were scanned at two sites, 20% and 50% of the total femoral length measured from the distal femur. The position was verified using scout views, and scan results from two 0.5 mm slices perpendicular to the long axis of the femur shaft were recorded.

[3] = system: orchidectomized rats (ORX); test: Cantilever compression test of the femoral neck (Example 4); assay type: in vivo, rat; settings: 12 weeks, mean
Experimental: (§2) Eight month-old male Sprague Dawley rats were either sham-operated (SHAM) or orchidectomized (ORX). Treatment began immediately following surgery. The treatment groups were as described in Table 5. Bone strength was evaluated using a compression test at the vertebral body, a three point bending test at the femoral shaft, a compression test at the distal femur and a cantilever compression test of the femoral neck. Prior to mechanical testing, all samples were thawed in cold saline and carefully cleaned of any remaining adherent soft tissue.

[4] = system: orchidectomized rats (ORX); test: Compression test of the vertebral body (L5) (Example 4); assay type: in vivo, rat; settings: for Elastic Modulus / Energy / Maximum Load / Stiffness / Toughness / Ultimate Strength: 12 weeks, vertebral body compression, mean
Experimental: as §2

[5] = system: orchidectomized rats (ORX); test: Ex vivo DXA of the femur (BMC, BA, BMD) (Example 4); assay type: in vivo, rat; settings: for Distal femur Bone Area / Distal femur Bone Mineral Content / Distal femur Bone Mineral Density / Midshaft femur Bone Area / Midshaft femur Bone Mineral Content / Midshaft femur Bone Mineral Density / Proximal femur Bone Area / Proximal femur Bone Mineral Content / Proximal femur Bone Mineral Density / Whole femur Bone Area / Whole femur Bone Mineral Content / Whole femur Bone Mineral Density: ORX rats, 6 wks, mean; for bone mass of the whole femur (DXA): 6 weeks of treatment; for loss in bone mineral density at the proximal femur (DXA): 10 mg/kg/d Tor, E 0.2 mg/kg/d; for bone density at the distal femur (DXA): 10 mg/kg/d toremifene, E 0.2 mg/kg/d (p<0.05 vs. Orx+Vehicle for E)
Experimental: as §1
Ex vivo DXA analysis was performed on the vertebra (L5) using a PIXImus instrument and associated animal research software (Lunar Corporation, Madison, Wis.). Bone mineral content (BMC), bone area (BA) and bone mineral density (BMD) are reported. Ex vivo DXA analysis was performed on the femur using a pDXA Sabre and associated animal research software (Norland Medical Systems, Inc., Fort Atkinson, Wis.). BMC, BA and BMD are reported for four regions of interest: whole femur, 25% distal femur, 25% proximal femur and 50% of midshaft femur.

[6] = system: Osteocalcin in rat serum; test: Osteocalcin (OC) in rat serum (Example 4); assay type: in vivo; settings: Orx rats; for OC (osteocalcin) levels in serum: 10 days; for inhibitory effect on OC levels: 28 days
Experimental: This assay is specific for rat Osteocalcin and both carboxylated and decarboxylated rat Osteocalcin are recognized. A monoclonal antibody against the N-terminal region of Osteocalcin is bound to the polystyrene wells. The assay was performed in duplicates. 100 ul of standards, control and 1 to 20 diluted samples were added to appropriate wells and incubated overnight at 4 C. After washing the strips, 100 ul of Goat polyclonal antibody of high specificity for C-terminus of rat Osteocalcin was added and incubated 60 min at 37 C. After washing, 100 ul of Donkey anti-goat IgG peroxidase conjugated antibody was added and incubated 60 min at 22 C. The wells were washed and a mix of TMB and peroxide solution was added and incubated 30 min at 22 C in the dark. The reaction was stopped, and the absorbance was measured at 450 nm. A standard curve was constructed using 4-parametric logistic curve fit. Sample osteocalcin concentrations were determined by interpolation. Eight month-old male Sprague Dawley rats were either sham-operated (SHAM) or orchidectomized (ORX). Treatment began immediately following surgery. The treatment groups were as described in Table 5.

[7] = week 12, Toremifene 5 and 10 mg/kg/d, Estradiol 0.2 mg/kg/d
[8] = Toremifene 5 mg/kg/d, Estradiol 0.2 mg/kg/d

CN(C)CCOc1ccc(/C(=C(/CCCl)c2ccccc2)c2ccccc2)cc1 [Toremifene]
prostate weight [1]: no effect on prostate weight
cancellous bone mineral content and density (Orx-induced decrease of 34%) [2]: partially prevented this decrease
Total Bone Area [2]: 15.96 mm^2
Total Bone Content [2]: 10.69 mg/mm
Total Bone Density [2]: 669.74 mg/mL
Trabecular Area [2]: 7.18 mm^2
Trabecular Content [2]: 1.13 mg/mm
Trabecular Density [2]: 157.56 mg/mL
Energy ([3]; 5 mg/kg/d): 46.53 mJ
Maximum Load ([3]; 5 mg/kg/d): 116.46 N
Stiffness ([3]; 5 mg/kg/d): 211.77 N/mm
Energy ([3]; 10 mg/kg/d): 44.59 mJ
Maximum Load ([3]; 10 mg/kg/d): 117.50 N
Stiffness ([3]; 10 mg/kg/d): 211.73 N/mm
Elastic Modulus ([4]; 5 mg/kg/d): 446.38 MPa
Energy ([4]; 5 mg/kg/d): 36.60 mJ
Maximum Load ([4]; 5 mg/kg/d): 238.19 N
Stiffness ([4]; 5 mg/kg/d): 1391.70 N/mm
Toughness ([4]; 5 mg/kg/d): 0.72 MJ/m^3
Ultimate Strength ([4]; 5 mg/kg/d): 19.08 N/mm^2
Elastic Modulus ([4]; 10 mg/kg/d): 438.64 MPa
Energy ([4]; 10 mg/kg/d): 27.02 mJ
Maximum Load ([4]; 10 mg/kg/d): 206.48 N
Stiffness ([4]; 10 mg/kg/d): 1255.47 N/mm
Toughness ([4]; 10 mg/kg/d): 0.59 MJ/m^3
Ultimate Strength ([4]; 10 mg/kg/d): 18.12 N/mm^2
ORX-induced decreases in bone strength, compression test of the vertebral body [4, 7]: did not prevent these changes
ORX-induced decreases in bone strength, compression test of the vertebral body ([4]; week 12, Toremifene at the 10 mg/kg/d dose): may have worsened the changes
Distal femur Bone Area [5, 8]: 0.649 cm^2
Distal femur Bone Mineral Content [5, 8]: 0.145 gm
Distal femur Bone Mineral Density [5, 8]: 0.224 gm/cm^2
Midshaft femur Bone Area [5, 8]: 1.086 cm^2
Midshaft femur Bone Mineral Content [5, 8]: 0.271 gm
Midshaft femur Bone Mineral Density [5, 8]: 0.249 gm/cm^2
Proximal femur Bone Area [5, 8]: 0.658 cm^2
Proximal femur Bone Mineral Content [5, 8]: 0.154 gm
Proximal femur Bone Mineral Density [5, 8]: 0.234 gm/cm^2
Whole femur Bone Area [5, 8]: 2.389 cm^2
Whole femur Bone Mineral Content [5, 8]: 0.570 gm
Whole femur Bone Mineral Density [5, 8]: 0.238 gm/cm^2
Distal femur Bone Area ([5]; Toremifene 10 mg/kg/d): 0.659 cm^2
Distal femur Bone Mineral Content ([5]; Toremifene 10 mg/kg/d): 0.152 gm
Distal femur Bone Mineral Density ([5]; Toremifene 10 mg/kg/d): 0.230 gm/cm^2
Midshaft femur Bone Area ([5]; Toremifene 10 mg/kg/d): 1.094 cm^2
Midshaft femur Bone Mineral Content ([5]; Toremifene 10 mg/kg/d): 0.286 gm
Midshaft femur Bone Mineral Density ([5]; Toremifene 10 mg/kg/d): 0.261 gm/cm^2
Proximal femur Bone Area ([5]; Toremifene 10 mg/kg/d): 0.672 cm^2
Proximal femur Bone Mineral Content ([5]; Toremifene 10 mg/kg/d): 0.164 gm
Proximal femur Bone Mineral Density ([5]; Toremifene 10 mg/kg/d): 0.244 gm/cm^2
Whole femur Bone Area ([5]; Toremifene 10 mg/kg/d): 2.420 cm^2
Whole femur Bone Mineral Content ([5]; Toremifene 10 mg/kg/d): 0.601 gm
Whole femur Bone Mineral Density ([5]; Toremifene 10 mg/kg/d): 0.248 gm/cm^2
bone mineral density at the midshaft femur (DXA) ([5]; Orx rats, 6 weeks): did not show any effect
bone mass of the whole femur (DXA) ([5]; Orx rats): did not exhibit any significant effect
loss in bone mineral density at the proximal femur, as in distal femur (DXA) ([5]; Orx rats, 6 weeks, 5 mg/kg/d Tor): ineffective
loss in bone mineral density at the proximal femur (DXA) ([5]; Orx rats, 6 weeks): somewhat helpful in preventing this loss
bone density at the distal femur (DXA) ([5]; Orx rats, 6 weeks): prevented Orx-related loss of bone density
OC (osteocalcin) levels in serum ([6]; 10 mg-Tor): reversed OC levels to slightly below that of Sham group
OC (osteocalcin) levels in serum ([6]; E 0.2 mg/kg/d, 5 mg-Tor): reversed OC levels to slightly below that of Sham group
inhibitory effect on OC levels ([6]; continued at 42 days, 10 mg-Tor): more pronounced than both 5 mg Tor and E
inhibitory effect on OC levels ([6]; 5 mg-Tor): same as E

C[C@]12CC[C@@H]3c4ccc(O)cc4CC[C@H]3[C@@H]1CC[C@@H]2O [17-β-Estradiol]
prostate weight [1]: no effect on prostate weight
cancellous bone mineral content and density (Orx-induced decrease of 34%) [2]: fully prevent this cancellous bone loss
Total Bone Area [2]: 15.95 mm^2
Total Bone Content [2]: 11.01 mg/mm
Total Bone Density [2]: 690.74 mg/mL
Trabecular Area [2]: 7.17 mm^2
Trabecular Content [2]: 1.52 mg/mm
Trabecular Density [2]: 210.28 mg/mL
Energy ([3]; 0.2 mg/kg/d): 40.07 mJ
Maximum Load ([3]; 0.2 mg/kg/d): 114.96 N
Stiffness ([3]; 0.2 mg/kg/d): 209.95 N/mm
Elastic Modulus ([4]; 0.2 mg/kg/d): 589.03 MPa
Energy ([4]; 0.2 mg/kg/d): 43.60 mJ
Maximum Load ([4]; 0.2 mg/kg/d): 298.04 N
Stiffness ([4]; 0.2 mg/kg/d): 1648.17 N/mm
Toughness ([4]; 0.2 mg/kg/d): 0.94 MJ/m^3
Ultimate Strength ([4]; 0.2 mg/kg/d): 25.75 N/mm^2
ORX-induced decreases in bone strength, compression test of the vertebral body [4, 7]: prevented loss of bone strength due to ORX
Distal femur Bone Area [5, 8]: 0.674 cm^2
Distal femur Bone Mineral Content [5, 8]: 0.162 gm
Distal femur Bone Mineral Density [5, 8]: 0.240 gm/cm^2
Midshaft femur Bone Area [5, 8]: 1.128 cm^2
Midshaft femur Bone Mineral Content [5, 8]: 0.281 gm
Midshaft femur Bone Mineral Density [5, 8]: 0.250 gm/cm^2
Proximal femur Bone Area [5, 8]: 0.685 cm^2
Proximal femur Bone Mineral Content [5, 8]: 0.167 gm
Proximal femur Bone Mineral Density [5, 8]: 0.245 gm/cm^2
Whole femur Bone Area [5, 8]: 2.480 cm^2
Whole femur Bone Mineral Content [5, 8]: 0.609 gm
Whole femur Bone Mineral Density [5, 8]: 0.246 gm/cm^2
bone mineral density at the midshaft femur (DXA) ([5]; Orx rats, 6 weeks): did not show any effect
bone mass of the whole femur (DXA) ([5]; Orx rats): did not exhibit any significant effect
loss in bone mineral density at the proximal femur (DXA) ([5]; Orx rats, 6 weeks): somewhat helpful in preventing this loss
bone density at the distal femur (DXA) ([5]; Orx rats, 6 weeks): significantly improved overall density
OC (osteocalcin) levels in serum ([6]; E 0.2 mg/kg/d, 5 mg-Tor): reversed OC levels to slightly below that of Sham group

Source: patent US7524866B2, “Prevention and treatment of androgen—deprivation induced osteoporosis” (GTx, Inc., priority 2001, dated 2009)
